{"source": "patent US11622964B2", "about": "“Method for destroying cellular mechanical homeostasis and promoting regeneration and repair of tissues and organs, and use thereof” (INSTITUTE OF ZOOLOGY, CHINESE ACADEMY OF SCIENCES, priority 2018, dated 2023)", "key": {"human fibroblasts [1]": {"tested_on": "human fibroblasts", "assay": "Cellular mechanical homeostasis and cell softening in human fibroblasts (phalloidin staining, immunofluorescence, quantitative PCR)", "assay_type": "cell-based", "from_the_text": "FIG. 1A is a schematic diagram of laser confocal scanning."}, "CCl4 liver damage": {"tested_on": "CCl4 liver damage", "assay": "Blood biochemistry, hepatocyte proliferation, apoptosis and liver function genes after CCl4 liver damage", "assay_type": "in vivo, mice", "procedure": "Blood biochemical analysis (fasting 12-16 hours before sampling) further confirms that myosin inhibitor (−)-blebbistatin may reduce the content of liver damage indicators such as ALT, AST and GGT, as shown in FIG. 4A. Further, Alb-crexmTmG hybrid mice are used for fibrosis modeling with CCl4, wherein GFP is expressed in mature hepatocytes of the mice. […] In summary, the myosin inhibitor (−)-blebbistatin promotes liver regeneration by inhibiting fibrosis of liver damage, promoting hepatocyte proliferation, and reducing apoptosis, thereby maintaining liver function."}, "liver tissue": {"tested_on": "liver tissue", "assay": "Liver tissue rigidity (Young's modulus, Mark-10 ESM303) and second harmonic scanning in CCl4 chronic severe liver damage", "assay_type": "in vivo, mice", "from_the_text": "The ICR, C57Bl/6 mice used in the experiment are purchased from SPF (Beijing) Biotechnology Co., Ltd.; elbow tweezers, finger tweezers, scissors, needle holders, suture needles, suture threads are purchased from Asone Trading Co., Ltd.; antibiotics are purchased from Gibco (15240-062). A chronic severe liver damage model induced by CCl4 (the same as Example 4) is constructed, and the mice are sacrificed by cervical dislocation after modeling. […] It can be seen from the above results that, the myosin inhibitor reduces the tissue rigidity during liver damage process."}, "[2]": {"tested_on": "bleomycin-induced pulmonary fibrosis", "assay": "Bleomycin-induced pulmonary fibrosis model", "assay_type": "in vivo, mice", "settings": "1-3 mg/kg/day", "procedure": "In the invention, bleomycin (BLM) is instilled into pulmonary tracheal of ICR or C57Bl/6 mice to successfully construct a mouse model of pulmonary fibrosis, and the mice are treated by intraperitoneal administration of myosin inhibitor (−)-blebbistatin. […] The detailed processes of injecting bleomycin are as follows:\n(1) Dilution of bleomycin: 50 mg/ml stock solution is diluted 25 times to obtain a final concentration of 2 mg/ml.\n(2) The mice are anesthetized by intraperitoneal injection of 0.5% sodium pentobarbital (100 μl/10 g b.w.).\n(3) The neck skin is disinfected by 75% alcohol, cutting the neck skin and bluntly separating the mucosa and muscles of the trachea, exposing the trachea, and taking care not to damage the thyroid.\n(4) 50 μl (20 g body weight) of bleomycin is injected into the interval of tracheal cartilage by an insulin syringe at a dose of 5 mg/kg. After the needle is pulled out, putting the console upright, rotating left and right for 1 min, and then the skin is sutured. The mice eat food and drink water freely after spontaneously awakening.\nThe mice are identified and divided into two groups: DMSO (indicated as “Con” in FIG. 8) and (−)-blebbistatin (indicated as “Bleb” in FIG. 8, 1-3 mg/kg/day) are respectively administrated by intraperitoneal injection, wherein they are respectively dissolved in 2-5% DMSO+30% PEG400+2% Tween80+ddH2O. The survival status of the mice is recorded with intraperitoneal injection/day, tail vein injection/3 days. The result is shown in FIG. 8B, all the mice in the control group died on day 8 of treatment, while the mice in the Bleb treatment group have a survival rate of 40% on day 15 of treatment.\n(6) Small animal CT scanning is performed on D8 (modeling on D14), the samples are taken and fixed after heart perfusion, slicing the samples and performing H&E and Sirius red staining. The result is shown in FIG. 8D, (−)-blebbistatin inhibits tissue damage and fibrosis during bleomycin-induced lung damage."}, "human fibroblasts [3]": {"tested_on": "human fibroblasts", "assay": "Transcriptome sequencing of treated human fibroblasts", "assay_type": "cell-based"}, "[4]": {"tested_on": "homologous recombination repair", "assay": "Homologous recombination repair reporter plasmid system (flow cytometry, GFP/mRuby)", "assay_type": "cell-based", "settings": "treated for 4 h at 18 h, 24 h, 36 h after medium change; flow analysis 72 h after transfection", "procedure": "First, a reporter plasmid system for homologous recombination repair is constructed, and the cells emit green fluorescence only when the foreign homologous sequence and the homologous fragment of the cell are homologously recombined. Meanwhile, mRuby red fluorescent protein is transferred to label the efficiency of transfected cells, and the efficiency of homologous recombination is determined by flow cytometry analysis of the ratio of green fluorescent protein to mRuby. 18 h after changing the medium for the transfection, the control group is treated with DMSO for 4 h; and 18 h, 24 h, and 36 h after changing the medium for the transfection, the experimental group is treated with (−)-blebbistatin for 4 h, and the HDR efficiency is analyzed by flow analysis 72 h after transfection. […] The experimental procedure is as follows: after changing the medium for the transfection, the control group is treated with DMSO; and after changing the medium for the transfection, the experimental group is treated with 250 nM RTA408; then the HDR efficiency is analyzed by flow analysis 72 h after transfection."}, "[5]": {"tested_on": "mouse embryonic fibroblasts (MEFs)", "assay": "TGF-β1-induced transformation of mouse embryonic fibroblasts into myofibroblasts", "assay_type": "cell-based", "from_the_text": "(§1) In this example, cell models for in vitro fibrosis are respectively built to activate mouse hepatic stellate Cells (mHSCs, FIG. 13(B)), mouse embryonic fibroblasts (MEFs FIG. 13(C)), mouse adult liver, lung, and heart-derived primary mesenchymal cells (priMCs, FIG. 13(D)), and human hepatic stellate cells (hLX-2, FIG. 13(E)) into myofibroblasts through the induction of TGF-β1. The specific experimental procedure is as shown in FIG. 9A: a medium containing 10% serum is used for the initial cell culture; after 24 hours the medium is replaced with low serum medium (or pre-starvation treatment for 16 hours) while adding 3 ng/ml TGF-β1 with DMSO or Bleb (20 μM); after 7 days the expression of myofibroblast activation marker protein (Acta2), collagen (Col1a1, Col1a2, Col3a1, and Col1a2), and matrix metalloproteinases and inhibitors (collagenases: MmP8, and MmP13; gelatinases: MmP2, and MmP9; a metalloproteinase inhibitor: Timp1/2/3) are identified."}, "[6]": {"tested_on": "mouse adult liver, lung, and heart-derived primary mesenchymal cells (priMCs)", "assay": "TGF-β1-induced transformation of mouse primary mesenchymal cells into myofibroblasts", "assay_type": "cell-based", "settings": "20 μM, 3 ng/ml TGF-β1, 7 days", "from_the_text": "as §1"}, "[7]": {"tested_on": "human hepatic stellate cells (hLX-2)", "assay": "TGF-β1-induced transformation of human hepatic stellate cells into myofibroblasts", "assay_type": "cell-based", "settings": "20 μM, 3 ng/ml TGF-β1, 7 days", "from_the_text": "as §1"}}, "note": "“Also recorded” adds a separate entry of the source."}
{"smiles": "Cc1ccc2c(c1)C(=O)[C@]1(O)CCN(c3ccccc3)C1=N2", "note": "[(−)-blebbistatin]", "values": [{"measurement": "EZH2 protein level and localization", "setting": "human fibroblasts [1]", "value": "down-regulated and it is localized at the cytoplasm"}, {"measurement": "nucleus morphology", "setting": "human fibroblasts [1]; 20 μM, vs DMSO control", "value": "irregular folds"}, {"measurement": "stress fibers in the cell (phalloidin staining)", "setting": "human fibroblasts [1]; 20 μM, vs DMSO control", "value": "disintegrated"}, {"measurement": "cells with obvious nuclear localization of stress effect protein YAP1/TAZ", "setting": "human fibroblasts [1]; after drug treatment", "value": 35, "unit": "%"}, {"measurement": "proteins related to regulation of cellular mechanical hardness (quantitative PCR)", "setting": "human fibroblasts [1]; after small molecule treatment", "value": "significantly down-regulated"}, {"measurement": "modification of H3K27 trimethylation (immunofluorescence)", "setting": "human fibroblasts [1]; day 4", "value": "significantly reduced"}, {"measurement": "active transcriptional region labeled with fluorouridine", "setting": "human fibroblasts [1]; three biological replicates", "value": "also distributed near the periphery of the nucleus"}, {"measurement": "heterochromatin HP1 proteins", "setting": "human fibroblasts [1]; vs DMSO control", "value": "the control group is significantly stronger than the experimental group"}, {"measurement": "Alb expression in GFP-expressing hepatocytes", "setting": "CCl4 liver damage; Alb-cre x mTmG hybrid mice, CCl4 fibrosis modeling", "value": "most of the cells expressing GFP express Alb"}, {"measurement": "expression of hepatocyte-related, bile duct-related and proliferation-related genes (transcriptional level)", "setting": "CCl4 liver damage; compared with the control group", "value": "significantly maintains high level expression"}, {"measurement": "content of liver damage indicators such as ALT, AST and GGT (blood biochemical analysis)", "setting": "CCl4 liver damage; fasting 12-16 hours before sampling", "value": "reduce"}, {"measurement": "apoptosis during liver damage (TUNEL staining)", "setting": "CCl4 liver damage; mouse, in vivo", "value": "reduces"}, {"measurement": "cell proliferation after liver damage (ALB/Ki-67 staining)", "setting": "CCl4 liver damage; mouse, in vivo", "value": "significantly promotes"}, {"measurement": "rigidity of liver tissue (Young's modulus)", "setting": "liver tissue; day 7 of the treatment", "value": "significantly reduces"}, {"measurement": "massive parallel array of fibers in the liver tissue (second harmonic intravital scanning)", "setting": "liver tissue; mouse, in vivo", "value": "reduced"}, {"measurement": "decrease in lung volume (small animal CT)", "setting": "[2]", "value": "inhibits the decrease"}, {"measurement": "lung tissue damage (H&E staining)", "setting": "[2]", "value": "inhibits"}, {"measurement": "pulmonary fibrosis (Sirius red staining, statistical analysis)", "setting": "[2]", "value": "inhibiting pulmonary fibrosis; also recorded: significantly improves; also recorded: inhibits"}, {"measurement": "survival of mice with pulmonary fibrosis (in words)", "setting": "[2]", "value": "significantly promoting survival"}, {"measurement": "decrease in lung volume (small animal CT)", "setting": "[2]; listed as Bleb", "value": "significantly inhibits"}, {"measurement": "lung tissue damage (H&E staining)", "setting": "[2]; listed as Bleb", "value": "relieves lung damage"}, {"measurement": "pulmonary fibrosis (Sirius red staining, statistical analysis)", "setting": "[2]; listed as Bleb", "value": "relieves pulmonary fibrosis"}, {"measurement": "survival of mice with pulmonary fibrosis (in words)", "setting": "[2]; listed as Bleb", "value": "significantly increases"}, {"measurement": "survival rate", "setting": "[2]; day 15 of treatment, 10 mice per group", "value": 40, "unit": "%"}, {"measurement": "DNA replication, homologous recombination, mismatch repair, nucleotide excision repair and base excision repair related genes", "setting": "human fibroblasts [3]; 5-50 μM, after 6 hours", "value": "significantly upregulated"}, {"measurement": "important genes involved in homologous recombination", "setting": "human fibroblasts [3]; 5-50 μM, after 6 hours", "value": "significantly upregulated"}, {"measurement": "genes related to initiation of regeneration (such as FST) and neurogenesis-related genes", "setting": "human fibroblasts [3]; after induction for 22 days under the neural induction system", "value": "significantly upregulated"}, {"measurement": "mRNA expression of general stress response genes", "setting": "human fibroblasts [3]; day 1 and day 2", "value": "begins to downregulate"}, {"measurement": "genes related to general stress response (HSP70 family, HSP90)", "setting": "human fibroblasts [3]; early 6 hours of the induction", "value": "upregulated"}, {"measurement": "efficiency of homologous recombination (HDR efficiency)", "setting": "[4]", "value": "significantly increases"}, {"measurement": "TGF-β1 induced transformation into myofibroblasts and extracellular matrix synthesis", "setting": "[5]; 20 μM, 3 ng/ml TGF-β1, 7 days", "value": "significantly inhibits"}, {"measurement": "stretched state / fibrous morphology of MEFs", "setting": "[5]; compared with DMSO, S-Bleb-OB 20 μM", "value": "may destroy the stretched state"}, {"measurement": "TGF-β1-induced myofibroblast activation", "setting": "[5]; scheme as Example 9-1, S-Bleb-OB 20 μM", "value": "have an inhibitory effect"}, {"measurement": "TGF-β1 induced transformation into myofibroblasts and extracellular matrix synthesis", "setting": "[6]", "value": "significantly inhibits"}, {"measurement": "TGF-β1 induced transformation into myofibroblasts and extracellular matrix synthesis", "setting": "[7]", "value": "significantly inhibits"}, {"measurement": "inhibitors of metalloproteinases", "setting": "[7]", "value": "down-regulation"}, {"measurement": "metalloproteinases for degrading extracellular matrix", "setting": "[7]", "value": "promoting the up-regulation"}]}
